Laboratory results as given in US9684238B2, “Fluorene-type compound, photopolymerization initiator comprising said fluorene-type compound, and photosensitive composition containing said photopolymerization initiator” (TOKYO OHKA KOGYO CO., LTD., priority 2012, dated 2017).

Experiments:
[1] = Solubility in PGME, PGMEA and ethyl lactate; type: physicochemical
[2] = Transparency: coloring of the photopolymerization initiator before and after exposure; type: physicochemical; conditions: 40 g/L in tetrahydrofuran; 365 nm UV, 850 to 2,550 mJ/cm^2; compared with compound C-1
Experimental: An influence on the coloring of a photopolymerization initiator after its exposure was confirmed because the photopolymerization initiator was required to have transparency. Specifically, as described below, the degrees of coloring (color change) of the photopolymerization initiator itself before and after its exposure were evaluated by measuring its absorbance. A 40 g/L solution of the compound 4 of Synthesis Example 4 in tetrahydrofuran was prepared, and the solution was loaded into a lidded UV cell made of quartz (12.5×12.5×58 mm) having an optical path length of 1 cm. The absorption spectrum of the solution before its exposure was measured with a spectrophotometer (manufactured by Hitachi High-Technologies Corporation, trade name: “U-3900H”). After that, the quartz surface of the UV cell was vertically irradiated with 850 mJ/cm^2 of UV light having a wavelength of 365 nm by using an exposure apparatus (manufactured by Ushio Inc., trade name: “[…]” (ML-251A/B) and optical unit (PM25C-100)), and the absorption spectrum of the solution was measured again. The foregoing operations were repeatedly performed, and a change in absorbance of the solution by UV irradiation was measured. […]
The axis of abscissa of the graph of FIG. 1(A) indicates the measurement wavelength (nm) of an absorption spectrum and the axis of ordinate thereof indicates an absorbance (Abs.) at the wavelength. […]

[3] = Absorption coefficient (absorbance of 0.001% solution in tetrahydrofuran); type: physicochemical
Method in brief: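 Absorbance of a 0.001% (wt/vol) solution in tetrahydrofuran recorded by spectrophotometer. Absorption maximum wavelength (λmax) taken from the spectrum within 280–400 nm.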

[4] = Evaluation 1: 20-μm pattern line width of transparent photosensitive composition; conditions: transparent composition, initiator 0.4 mmol
[5] = Transmittance of transparent cured film; type: physicochemical
Method in brief: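 Films cured at 80 mJ/cm^2 exposure, otherwise prepared as in the earlier film evaluation. Spectrophotometer read in quartz cell, 1 cm path, giving transmittance (%) at 400 nm and average transmittance (%) over 400–700 nm.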

[6] = Average transmittance of composition; type: physicochemical; conditions: photosensitive composition, quartz cell, optical path length 1 cm
Experimental: The average transmittance (%) of each of the photosensitive resin compositions obtained in Examples 1 to 9, Examples 2-1 to 2-10, and Comparative Examples 1 and 2 in the range of from 400 nm to 700 nm was measured with a spectrophotometer (manufactured by Hitachi High-Technologies Corporation, trade name: “U-3900H”, quartz cell, optical path length; 1 cm).

[7] = Decomposition point by thermal analysis (TG-DTA); type: physicochemical; conditions: 5.0 mg
Experimental: The compounds 1, 2, 4, 6, 8, 9, 11, 12, 13, 15, 16, D-1, D-3, D-4, D-7, D-8, D-9, D-12, D-14, D-15, D-20, C-1, and C-2 were each subjected to measurement with a thermal analysis apparatus (TG-DTA) (manufactured by Rigaku Corporation, trade name: “Thermo Plus EVO TG 8120”) by using 5.0 mg thereof.

[8] = photopolymerization initiator containing the compound
[9] = 0.001% (wt/vol) solution in tetrahydrofuran
[10] = cured at exposure energy quantity 80 mJ/cm^2

CCCC1(CCC)c2cc(C(=O)c3ccccc3C)ccc2-c2ccc(/C(C)=N/OC(C)=O)cc21 [Compound 4]
Solubility Ethyl lactate ([1]; in 100 parts by weight of ethyl lactate, room temperature): B (An amount in the range of from 5 parts by weight or more to less than 10 parts by weight of the photopolymerization initiator is dissolved.) | Solubility PGMEA ([1]; in 100 parts by weight of propylene glycol monomethyl ether acetate, room temperature): A (10 Parts by weight or more of the photopolymerization initiator is dissolved.) | Solubility PGME ([1]; in 100 parts by weight of propylene glycol monomethyl ether, room temperature): B (An amount in the range of from 5 parts by weight or more to less than 10 parts by weight of the photopolymerization initiator is dissolved.) | solubility (in words) [1, 8]: additionally excellent solubility | influence on the coloring by the exposure [2]: small | Λ max (absorption maximum wavelength) ([3]; 0.001% (wt/vol) in tetrahydrofuran, from 280 nm to 400 nm): 330.5 nm | Absorption coefficient at 365 nm [3, 9]: 2.2 mL/mg/cm | Absorption coefficient at Λ max [3, 9]: 85.7 mL/mg/cm | 20-μm pattern line width ([4]; exposure energy quantity 10 mJ/cm^2): 19.4 | 20-μm pattern line width ([4]; exposure energy quantity 20 mJ/cm^2): 20.0 | 20-μm pattern line width ([4]; exposure energy quantity 40 mJ/cm^2): 21.3 | 20-μm pattern line width ([4]; exposure energy quantity 60 mJ/cm^2): 22.1 | 20-μm pattern line width ([4]; exposure energy quantity 80 mJ/cm^2): 22.4 | Average transmittance (700 nm to 400 nm) Transparent cured film [5, 10]: 99.9% | Transmittance (400 nm) Transparent cured film [5, 10]: 99.4% | transparency of photosensitive composition and formed product (in words) [5, 8]: additionally excellent transparency | Average transmittance (700 nm to 400 nm) Solution [6]: 96.3% | Decomposition point [7]: 277.0 °C
